Test results from the supplement of paper PMC10307832.

Experiments:
Test in all cases: relative viability (nuclei count vs DMSO), 5 days (fraction); higher = more cells survive
[1] = compound: COc1cc2nccc(Oc3ccc(NC(=O)C4(C(=O)Nc5ccc(F)cc5)CC4)cc3)c2cc1OC [Cabozantinib] + CS(=O)(=O)N1CCN(Cc2cc3nc(-c4cccc5[nH]ncc45)nc(N4CCOCC4)c3s2)CC1 [Pictilisib] (partner 1 µM)
How it was run: (§1)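 Relative viability divides the nuclei count in treated wells by that in vehicle wells. Lung cancer cell lines were seeded in 1536-well plates, dosed by pin tool the next day, and fixed and stained after 5 days in one step with final 0.05% Triton X-100, 1% formaldehyde and 1 ug/ml Hoechst. Dosing was a single drug or a fixed anchor-drug dose plus five library-drug doses (not always all listed) in √10 steps, and values are medians of duplicate plates imaged at 4×.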

[2] = compound: O[C@@H](COc1cccc2ncccc12)CN1CCN([C@@H]2c3ccccc3[C@@H]3[C@H](c4ccccc42)C3(F)F)CC1 [Zosuquidar] + CC(=O)c1c(C)c2cnc(Nc3ccc(N4CCNCC4)cn3)nc2n(C2CCCC2)c1=O [Palbociclib] (partner 0.5 µM)
How it was run: as §1

[3] = compound: O[C@@H](COc1cccc2ncccc12)CN1CCN([C@@H]2c3ccccc3[C@@H]3[C@H](c4ccccc42)C3(F)F)CC1 [Zosuquidar] + Nc1nc2[nH]cc(CCc3ccc(C(=O)N[C@@H](CCC(=O)O)C(=O)O)cc3)c2c(=O)[nH]1 [Pemetrexed] (partner 0.2 µM)
How it was run: as §1

[4] = compound: COc1cc2nccc(Oc3ccc(NC(=O)C4(C(=O)Nc5ccc(F)cc5)CC4)cc3)c2cc1OC [Cabozantinib] + C[C@]1(O)C[C@@H](c2nc(-c3ccc4ccc(-c5ccccc5)nc4c3)c3c(N)nccn32)C1 [Linsitinib] (partner 1 µM)
How it was run: as §1

Cell Line | relative viability ([1]; first compound 0.02 µM) | relative viability ([1]; first compound 0.06325 µM) | relative viability ([1]; first compound 0.2 µM) | relative viability ([1]; first compound 0.6325 µM) | relative viability ([1]; first compound 2 µM) | relative viability ([2]; first compound 0.01 µM) | relative viability ([2]; first compound 0.03162 µM) | relative viability ([2]; first compound 0.1 µM) | relative viability ([2]; first compound 0.3162 µM) | relative viability ([2]; first compound 1 µM) | relative viability ([3]; first compound 0.01 µM) | relative viability ([3]; first compound 0.03162 µM) | relative viability ([3]; first compound 0.1 µM) | relative viability ([3]; first compound 0.3162 µM) | relative viability ([3]; first compound 1 µM) | relative viability ([4]; first compound 0.02 µM) | relative viability ([4]; first compound 0.06325 µM) | relative viability ([4]; first compound 0.2 µM) | relative viability ([4]; first compound 0.6325 µM) | relative viability ([4]; first compound 2 µM)
NCI-H1355 | 0.49 | 0.442 | 0.453 | 0.432 | 0.526 | 0.417 | 0.397 | 0.404 | 0.308 | 0.412 | 1.01 | 1 | 0.916 | 1.11 | 1.03 | 0.827 | 0.855 | 0.799 | 0.806 | 0.697
NCI-H1734 | 0.417 | 0.414 | 0.472 | 0.453 | 0.434 | 0.337 | 0.383 | 0.404 | 0.306 | 0.344 | 0.366 | 0.382 | 0.395 | 0.422 | 0.447 | 0.959 | 0.916 | 0.929 | 0.831 | 0.517
LXF-289 | 0.74 | 0.727 | 0.783 | 0.69 | 0.693 | 0.576 | 0.599 | 0.614 | 0.582 | 0.584 | 0.892 | 0.905 | 0.908 | 0.895 | 0.908 | 1.02 | 0.966 | 0.971 | 0.983 | 0.94
SK-LU-1 |  | 0.857 | 0.519 | 0.481 | 0.529 | 0.396 | 0.381 | 0.408 | 0.432 | 0.396 | 0.975 | 0.795 | 1.06 | 1.03 | 0.962 |  | 1.34 | 1.08 | 1.34 | 0.823
NCI-H2087 | 1.01 | 0.976 | 0.906 | 1.01 | 0.854 | 0.19 | 0.25 | 0.243 | 0.205 | 0.249 | 0.597 | 0.667 | 0.62 | 0.643 | 0.637 | 1.03 | 1 | 1.06 | 1.02 | 1
SK-MES-1 | 0.357 | 0.391 | 0.335 | 0.386 | 0.322 | 0.332 | 0.347 | 0.374 | 0.329 | 0.319 | 0.957 | 0.952 | 0.85 | 1.07 | 1.04 | 1.12 | 1.1 | 0.988 | 1.12 | 1.06
HCC-78 | 0.178 | 0.228 | 0.174 | 0.177 | 0.192 | 0.477 | 0.545 |  | 0.492 | 0.462 | 0.92 |  |  | 0.906 | 0.827 | 0.428 | 0.423 | 0.194 | 0.261 | 0.193
NCI-H1793 | 0.416 | 0.325 | 0.296 | 0.27 | 0.293 | 0.271 |  |  | 0.333 | 0.306 | 0.898 |  |  | 1.01 | 0.832 | 1.21 | 1.01 | 0.7 | 0.814 | 0.65
NCI-H2228 | 0.539 | 0.544 | 0.551 | 0.455 | 0.331 | 0.804 | 0.821 | 0.76 | 0.865 | 0.613 | 0.359 | 0.302 | 0.315 | 0.324 | 0.361 | 0.939 | 1.32 | 0.611 | 0.716 | 0.542
H3255 | 0.473 | 0.572 |  | 0.466 | 0.48 | 0.306 | 0.335 | 0.32 | 0.33 | 0.33 | 0.574 | 0.569 | 0.506 | 0.574 | 0.535 | 1.16 | 0.966 |  | 1.01 | 1.1
HCC-15 | 0.785 | 0.762 | 0.69 | 0.719 | 0.799 | 0.721 | 0.689 | 0.702 | 0.723 | 0.715 | 0.209 | 0.218 | 0.255 | 0.219 | 0.236 | 1 | 0.958 | 0.846 | 0.843 | 0.736
PC-14 | 0.722 | 0.761 |  | 0.76 | 0.689 | 0.506 | 0.475 | 0.635 | 0.509 | 0.52 | 0.119 | 0.147 | 0.134 | 0.128 | 0.142 | 1.09 | 1 |  | 0.961 | 0.927
NCI-H2023 | 0.189 | 0.228 | 0.22 | 0.206 | 0.2 | 0.364 | 0.36 | 0.418 | 0.37 | 0.313 | 0.224 | 0.233 | 0.212 | 0.302 | 0.297 | 0.637 | 0.76 | 0.465 | 0.459 | 0.316
HCC-44 | 0.487 | 0.581 | 0.6 | 0.571 | 0.662 | 0.974 | 1.04 | 0.944 | 1.02 | 0.956 | 0.613 | 0.708 | 0.663 | 0.618 | 0.632 | 0.807 | 0.795 | 0.726 | 0.64 | 0.573
COR-L23 | 0.487 | 0.831 | 0.789 | 0.74 | 0.691 | 0.295 | 0.328 | 0.301 | 0.354 | 0.314 | 0.222 | 0.188 | 0.201 | 0.198 | 0.189 | 1.03 | 1.27 | 0.866 | 0.954 | 0.863
EMC-BAC-2 | 0.505 | 0.566 | 0.516 | 0.554 | 0.542 | 0.508 | 0.451 | 0.544 | 0.577 | 0.521 | 0.459 | 0.417 | 0.441 | 0.457 | 0.335 | 0.842 | 0.853 | 0.775 | 0.834 | 0.797
